Patent publication US8071300B2, “Drug-phosphorylating enzyme” (Daiichi Sankyo Company, Limited, priority 2006, dated 2011)

Columns and labels:
[1] = system: human FN3KRP; assay: Compound 1 phosphorylating activity of human erythrocyte fractions in presence and absence of 1 mM DMF (FN3KRP purification, Example 6); assay type: biochemical
Experimental: (§1) When 1-deoxy-1-morpholinofructose (DMF; Sigma) was added to the reaction solution, it was added thereto to a final concentration of 1 mM. […] Thereafter, 150 μL of methanol was added to the reaction solution, and the mixture was then filtrated through a filter with a pore diameter of 0.45 μm, so as to terminate the reaction and remove the protein. 10 μL of the filtrate was subjected to a reverse phase chromatography column (TSK-gel ODS-100S; 4.6 mm (diameter)×150 mm (length); Tosoh Corp). Isocratic elution was carried out using 40% acetonitrile comprising 0.1% trifluoroacetic acid at a flow rate of 1 mL/min at a column temperature of 40° C. […] The amount of phosphoric ester of compound 1 generated was measured based on a peak area.
(§2) For purification, enzyme activity was always measured in the presence and absence of 1 mM DMF, so that the purification was carried out using activity that is not inhibited by DMF as an indicator.
(§3) The ammonium sulfate precipitate obtained in Example 4 was fractionated by each of an anion exchange column (HiPrep Q 16/10 XL, GE Healthcare Biosciences), a dye-binding affinity column (HiTrap Blue HP 1 mL), a cation exchange column (Mono S PC 1.6/5), and a gel filtration column (Superdex 75 PC 3.2/30).

[2] = biological target: T1, human FN3KRP (Homo sapiens, UniProt Q9HA64); assay: as above; assay type: biochemical
T1 sequence (Q9HA64 1-309): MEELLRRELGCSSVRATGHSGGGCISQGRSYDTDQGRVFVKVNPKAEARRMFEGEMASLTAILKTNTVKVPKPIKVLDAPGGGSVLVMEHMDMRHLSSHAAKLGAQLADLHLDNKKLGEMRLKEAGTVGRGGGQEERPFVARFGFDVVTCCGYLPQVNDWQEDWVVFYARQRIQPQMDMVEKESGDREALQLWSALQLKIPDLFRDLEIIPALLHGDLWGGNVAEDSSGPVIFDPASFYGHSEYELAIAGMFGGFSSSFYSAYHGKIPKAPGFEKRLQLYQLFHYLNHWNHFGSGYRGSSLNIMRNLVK
Experimental: as §1, §2, §3

[3] = biological target: T2, human FN3K (Homo sapiens, UniProt Q9H479); assay: DMF inhibition of compound 1 phosphorylating activity, hydrophobic interaction column active fraction (Example 6); assay type: biochemical; conditions: active fraction of the hydrophobic interaction column (second purification stage, Example 4)
T2 construct: expressed in transfected cells; host or cells: HEK293, transient, hFN3K/pcDNA3.2-DEST; cytoplasmic fraction (lysate supernatant) used
T2 sequence (Q9H479 1-309): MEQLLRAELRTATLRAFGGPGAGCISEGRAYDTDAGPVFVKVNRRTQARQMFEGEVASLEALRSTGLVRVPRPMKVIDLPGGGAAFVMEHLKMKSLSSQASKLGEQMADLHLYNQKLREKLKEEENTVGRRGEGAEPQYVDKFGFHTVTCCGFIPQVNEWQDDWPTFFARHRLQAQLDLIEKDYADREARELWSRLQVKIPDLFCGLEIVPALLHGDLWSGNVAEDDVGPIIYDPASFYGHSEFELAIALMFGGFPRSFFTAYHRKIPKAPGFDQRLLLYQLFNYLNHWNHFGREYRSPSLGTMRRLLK
Experimental: as §1

[4] = biological target: T1, human FN3KRP; assay: Ability of human FN3KRP cytoplasmic fraction to phosphorylate FTY720 and sphingosine (Example 12); assay type: biochemical; design: expressed in transfected cells; host or cells: HEK293, transient, hFN3KRP/pcDNA3.1(+)neo; cytoplasmic fraction (lysate supernatant) used; conditions: 10 μM substrate, 5 mM ATP, approximately 91 μg cytoplasmic fraction, 37° C., 3 hours
Experimental: (§4) Eighteen 1.5-mL polypropylene tubes were prepared. Components were added to each tube to the following final concentrations, with the total amount set at 250 μL, followed by leaving the obtained solution at rest on ice (100 mM HEPES (pH 7.4), 5 mM magnesium chloride, 5 mM ATP, 1 mM dithiothreitol, 0.5% CHAPS, 10 μM FTY720 or sphingosine, each cytoplasmic fraction obtained in Example 10 in an amount of approximately 91 μg). The obtained mixture was incubated in a hot-water bath at 37° C. for 3 hours, and was then transferred onto ice. 0.5 mL methanol was added to each tube, and mixed with the reaction product. Thereafter, the mixture was preserved at −20° C. until LC/MS/MS measurement was carried out.
(§5) The amount of FTY720 phosphoric ester or SIP generated was analyzed using the following LC/MS/MS system.
(§6) LC system: • HPLC apparatus name: Agilent 1100 series (Agilent Technologies) • Autosampler name: HTC PAL (CTC Analytics)
(§7) MS/MS system: • Apparatus name: API4000 (Applied Biosystems/MDS Sciex)

[5] = biological target: T2, human FN3K; assay: Ability of human FN3K cytoplasmic fraction to phosphorylate FTY720 and sphingosine (Example 12); assay type: biochemical; conditions: 10 μM substrate, 5 mM ATP, approximately 91 μg cytoplasmic fraction, 37° C., 3 hours
Experimental: as §4, §5, §6, §7

[6] = system: rat erythrocytes; assay: Phosphorylation of compound 1 and analogs using rat erythrocytes (Example 15); assay type: cell-based, Wistar-Imamichi rats; conditions: 100 μg/mL substrate, 37° C., 3 hours
Experimental: The efficiency of phosphorylating each compound was calculated using the peak areas of phosphoric ester and unreacted substrate, as shown in the following formula. Phosphorylation efficiency (%)=peak area of phosphoric ester/(peak area of phosphoric ester+peak area of unreacted substrate)×100
Erythrocytes were prepared from Wistar-Imamichi rats (purchased from Institute for Animal Reproduction) in the same manner as in Example 1.
Reaction solution: Rat erythrocytes
Reaction substrate: 100 μg/mL
Reaction condition: 37° C., 3 hours
After completion of the reaction, 1 mL of methanol was added to the reaction solution, and the mixture was then stirred. The mixed solution was centrifuged (16,000×g, 5 minutes, 4° C.). The supernatant was centrifuged again (16,000×g, 10 minutes, 4° C.), and 20 μL of a newly obtained supernatant was then subjected to HPLC, so that analysis was carried out under the conditions described in Example 13. The efficiency of phosphorylating each analog was calculated using the formula as shown in Example 13.

[7] = biological target: T2, human FN3K; assay: Phosphorylation of compound 1 and analogs using human FN3K expression cytoplasmic fraction (Example 14); assay type: biochemical; conditions: 100 μM substrate, 0.3 mg/mL human FN3K expression cytoplasmic fraction, 5 mM ATP, 37° C., 3 hours
Experimental: (§8) HEK293 cells were inoculated to three 75-cm^2 culture flasks, and they were then cultured until they became 80% confluent. Using a lipofectamine plus reagent (Invitrogen), gene introduction was carried out without plasmid DNA, with 4 μg of hFN3KRP/pcDNA3.1(+)neo, and with 4 μg of hFN3K/pcDNA3.2-DEST, for each of the three flasks. Thereafter, the cells were cultured for approximately 27 hours. Thereafter, the cells were washed with PBS, and 2.5 mL of a cell lysate (100 mM HEPES (pH 7.4), 80% (v/v) CelLytic-M (Sigma), 1 mM dithiothreitol, a single protease inhibitor cocktail for 50 mL (Complete EDTA-free, Roche)) was then added to the cells. Thereafter, the cells were intensively shaken, until all of them were removed. The thus removed cells and the supernatant were recovered, and they were then ultracentrifuged at 20,000×g at 4° C. for 15 minutes. Thereafter, the supernatant was recovered, and aliquots each of 200 μL were frozen in liquid nitrogen. They were preserved at −80° C. until used. […]
(§9) The efficiency of phosphorylating each compound was calculated using the peak areas of phosphoric ester and unreacted substrate, as shown in the following formula. […]
After completion of the reaction, 200 μL of methanol was added to the reaction solution, and the mixture was then stirred. […] The efficiency of phosphorylating each analog was calculated using the formula as shown in Example 13.

[8] = biological target: T1, human FN3KRP; assay: Phosphorylation of compound 1 and analogs using human FN3KRP expression cytoplasmic fraction (Example 13); assay type: biochemical; design: expressed in transfected cells; host or cells: HEK293, transient, hFN3KRP/pcDNA3.1(+)neo; cytoplasmic fraction (lysate supernatant) used; conditions: 100 μM substrate, 0.328 mg/mL human FN3KRP expression cytoplasmic fraction, 5 mM ATP, 37° C., 3 hours
Experimental: as §8, with “used. In addition, a portion of the supernatant was subjected to measurement of protein concentration.” for “used.”
as §9

Compound: O=C(CN1CCOCC1)[C@@H](O)[C@H](O)[C@H](O)CO [DMF, 1-deoxy-1-morpholinofructose]
- Remaining activity ([1]; 1 mM DMF; 1) ammonium sulfate precipitation): 89%
- Remaining activity ([1]; 1 mM DMF, soluble fraction): 81%
- Inhibition of compound 1 phosphorylating activity by DMF ([1]; soluble fraction and re-solubilized ammonium sulfate precipitate): hardly observed
- remaining activity at 1000 µM ([2]; 1 mM DMF; 2) anion exchange column): 98%
- remaining activity at 1000 µM ([2]; 1 mM DMF; 3) dye-binding affinity column): 110%
- remaining activity at 1000 µM ([2]; 1 mM DMF; 4) cation exchange column): 98%
- Inhibition of enzyme activity by DMF ([2]; enzyme activity after the second purification step): not inhibited
- IC50 [3]: ~1 µM

Compound: CCCCCCCCc1ccc(CCC(N)(CO)CO)cc1.Cl [FTY720, 2-Amino-2-[2-(4-octylphenyl)ethyl]propane-1,3-diol hydrochloride]
- Phosphorylation of substrate (LC/MS/MS) [4]: slightly phosphorylate
- Phosphorylation of substrate (LC/MS/MS) [5]: slightly phosphorylate

Compound: NC(CO)(CO)CCCc1ccc(Sc2cccc(OCc3ccccc3)c2)cc1Cl [ROX-2127, 2-amino-2-[4-(3-benzyloxyphenylthio)-2-chlorophenyl]propyl-1,3-propanediol]
- Phosphorylation efficiency [6]: 31.7%
- Phosphorylation efficiency [7]: 0.0%
- Phosphorylation efficiency [8]: 37.5%

Compound: CCCCCCCCCCCCC/C=C/[C@@H](O)[C@@H](N)CO [sphingosine]
- Phosphorylation of substrate (LC/MS/MS) [4]: do not have ability to phosphorylate
- Phosphorylation of substrate (LC/MS/MS) [5]: do not have ability to phosphorylate
